Legend:
[1] = target: GTP:AMP phosphotransferase AK3, mitochondrial (Rattus norvegicus) (UniProt P29411); assay: Inhibition index was the ratio between KM of AMP and Ki of AK III; assay type: functional
[2] = target: GTP:AMP phosphotransferase AK3, mitochondrial (Rattus norvegicus) (UniProt P29411); assay: Relative Vmax value to rat adenylate kinase III.
[3] = Relative inhibition index was the ratio between AK-M and AK II; assay type: functional
[4] = target: T1, Adenylate kinase isoenzyme 1 (Rattus norvegicus) (UniProt P39069); assay: Relative Vmax value to Adenylate kinase M isoenzyme (adenylate kinase 1, AK1)
T1 sequence (whole entry): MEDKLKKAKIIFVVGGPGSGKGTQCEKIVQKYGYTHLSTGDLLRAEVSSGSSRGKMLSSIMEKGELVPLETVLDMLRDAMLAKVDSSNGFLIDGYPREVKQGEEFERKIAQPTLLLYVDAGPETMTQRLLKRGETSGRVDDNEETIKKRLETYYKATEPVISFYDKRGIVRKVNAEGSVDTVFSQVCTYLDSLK

[5] = target: Adenylate kinase 2, mitochondrial (Rattus norvegicus) (UniProt P29410); assay: Relative Vmax value to rat adenylate kinase II.
[6] = target: T1, Adenylate kinase isoenzyme 1 (Rattus norvegicus); assay: Inhibition index was the ratio between KM of AMP and Ki of AK M; assay type: functional
[7] = target: Adenylate kinase 2, mitochondrial (Rattus norvegicus) (UniProt P29410); assay: Inhibition index was the ratio between KM of AMP and Ki of AK II; assay type: functional
[8] = Relative inhibition index was the ratio between AK-M and AK III; assay type: functional
[9] = test system: C[C@H](OP(=O)(O)O)[C@H]1OC(n2cnc3c(N)ncnc32)[C@H](O)[C@@H]1O; assay: (§1) Concentration of compound for half-maximal velocity to Adenylate kinase II; assay type: functional
[10] = test system: Nc1nc(Cl)nc2c1ncn2[C@@H]1O[C@H](COP(=O)(O)O)[C@@H](O)[C@H]1O; assay: as §1
[11] = test system: Nc1ncnc2c1ncn2[C@@H]1O[C@H](CCP(=O)(O)O)[C@@H](O)[C@H]1O; assay: as §1
[12] = test system: CNc1nc(N)c2ncn([C@@H]3O[C@H](COP(=O)(O)O)[C@@H](O)[C@H]3O)c2n1; assay: as §1
[13] = test system: Nc1ncnc2c1ncn2[C@@H]1O[C@H](/C=C/P(=O)(O)O)[C@@H](O)[C@H]1O; assay: as §1
[14] = test system: Nc1nc(N)c2ncn([C@@H]3O[C@H](COP(=O)(O)O)[C@@H](O)[C@H]3O)c2n1; assay: as §1
[15] = test system: Nc1ncnc2c1ncn2[C@@H]1O[C@H](COP(=O)(O)O)[C@@H](O)[C@H]1O; assay: as §1
[16] = test system: C[C@@H]1[C@H](O)[C@@H](COP(=O)(O)O)O[C@H]1n1cnc2c(N)ncnc21; assay: as §1
[17] = test system: CCC[C@H](OP(=O)(O)O)[C@H]1OC(n2cnc3c(N)ncnc32)[C@H](O)[C@@H]1O; assay: as §1
[18] = test system: CC[C@H](OP(=O)(O)O)[C@H]1OC(n2cnc3c(N)ncnc32)[C@H](O)[C@@H]1O; assay: as §1
[19] = target: GTP:AMP phosphotransferase AK3, mitochondrial (Rattus norvegicus) (UniProt P29411); assay: Inhibitory constant of compound with Rat adenylate kinase IIl at 1.3 mM concentration in the presence of 0.65 mM AMP
[20] = target: T1, Adenylate kinase isoenzyme 1 (Rattus norvegicus); assay: Inhibitory constant of compound with Rat adenylate kinase M isozyme at 1.3 mM concentration in the presence of 0.65 mM AMP
[21] = target: Adenylate kinase 2, mitochondrial (Rattus norvegicus) (UniProt P29410); assay: Relative Vmax value to Adenylate kinase II
[22] = target: GTP:AMP phosphotransferase AK3, mitochondrial (Rattus norvegicus) (UniProt P29411); assay: Relative Vmax value to Adenylate kinase III

Sequence of GTP:AMP phosphotransferase AK3, mitochondrial (Rattus norvegicus) (P29411 whole entry): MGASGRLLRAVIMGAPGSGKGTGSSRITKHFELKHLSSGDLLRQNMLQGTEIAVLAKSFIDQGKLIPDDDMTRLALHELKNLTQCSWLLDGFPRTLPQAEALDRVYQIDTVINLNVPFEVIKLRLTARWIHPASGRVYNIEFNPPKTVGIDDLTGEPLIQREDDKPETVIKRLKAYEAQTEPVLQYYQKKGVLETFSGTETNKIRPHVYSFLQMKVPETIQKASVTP

| Compound | Inhibition index [1] | Relative Vmax [2] | Relative Vmax [4] | Relative Vmax [5] | Inhibition index [6] | Inhibition index [7] | Relative inhibition index [3] | Relative inhibition index [8] | also measured |
| --- | --- | --- | --- | --- | --- | --- | --- | --- | --- |
| Nc1nc(N)c2ncn([C@@H]3O[C@H](COP(=O)(O)O)[C@@H](O)[C@H]3O)c2n1 | 0.042 | 24 | 7.1 | 18 | 0.17 | 0.05 | 3.4 | 4 |  |
| Adenylate kinase 2, mitochondrial (Rattus norvegicus) (from UniProt P29410) |  |  |  |  |  |  |  |  | Km [9]: 1300 µM; Km [10]: 1600 µM; Km [11]: 2500 µM; Km [12]: 3000 µM; Km [13]: 1600 µM; Km [14]: 1600 µM; Km [15]: 80 µM; Km [16]: 910 µM; Km [17]: 1100 µM; Km [18]: 1400 µM |
| CNc1nc(N)c2ncn([C@@H]3O[C@H](COP(=O)(O)O)[C@@H](O)[C@H]3O)c2n1 | 0.022 | 10 | 0.7 | 9.7 | 0.2 | 0.027 | 7.4 | 9.1 |  |
| CN(C)c1nc(N)c2ncn(C3O[C@H](COP(=O)(O)O)[C@@H](O)[C@H]3O)c2n1 (stereo partly specified) | 0.017 | 0 | 0.04 | 0 | 0.077 | 0.014 | 5.5 | 4.5 |  |
| Nc1ncnc2c1nc(Br)n2[C@@H]1O[C@H](COP(=O)(O)O)[C@@H](O)[C@H]1O |  | 0 | 0 | 0 |  |  |  |  |  |
| CCC[C@@H](OP(=O)(O)O)[C@H]1OC(n2cnc3c(N)ncnc32)[C@H](O)[C@@H]1O (stereo partly specified) | 0.021 | 0 | 0 | 0 |  | 0.025 |  |  |  |
| Nc1nc(Cl)nc2c1ncn2[C@@H]1O[C@H](COP(=O)(O)O)[C@@H](O)[C@H]1O | 0.05 | 7.5 | 0.13 | 5.8 | 0.21 | 0.05 | 4.2 | 4.2 |  |
| CCNc1nc(N)c2ncn([C@@H]3O[C@H](COP(=O)(O)O)[C@@H](O)[C@H]3O)c2n1 | 0.015 | 2.7 | 0.4 |  | 0.14 |  |  | 9.3 |  |
| CCSc1nc2c(N)ncnc2n1C1O[C@H](COP(=O)(O)O)[C@@H](O)[C@H]1O (stereo partly specified) |  | 0 | 0 | 0 |  |  |  |  |  |
| Nc1ncnc2c1ncn2C(CO)OC(CO)COP(=O)(O)O (stereo unspecified) |  | 0 | 0 | 0 |  |  |  |  |  |
| Nc1ncnc2c1ncn2[C@@H]1O[C@H](/C=C/P(=O)(O)O)[C@@H](O)[C@H]1O | 0.057 |  | 2.1 | 12 | 0.29 | 0.05 | 5.8 | 5.1 | Relative Vmax [22]: 13 |
| CC(=O)NCCNc1ncnc2c1ncn2C1O[C@H](COP(=O)(O)O)[C@@H](O)[C@H]1O (stereo partly specified) |  | 0 | 0 | 0 |  |  |  |  |  |
| Cn1cnc2c(ncn2[C@@H]2O[C@H](COP(=O)(O)O)[C@@H](O)[C@H]2O)c1=N |  | 0 | 0 | 0 |  |  |  |  |  |
| C=CC[C@]1(COP(=O)(O)O)OC(n2cnc3c(N)ncnc32)[C@H](O)[C@@H]1O (stereo partly specified) | 0.12 | > 0 | > 0 | > 0 | 0.97 | 0.21 | 4.6 | 8.1 |  |
| CSc1nc(N)c2ncn([C@@H]3O[C@H](COP(=O)(O)O)[C@@H](O)[C@H]3O)c2n1 |  | > 0 | > 0 | > 0 |  |  |  |  |  |

The next lines start with results.

| Inhibition index [1] | Relative Vmax [2] | Relative Vmax [4] | Relative Vmax [5] | Inhibition index [6] | Inhibition index [7] | Compound | Relative inhibition index [3] | Relative inhibition index [8] | also measured |
| --- | --- | --- | --- | --- | --- | --- | --- | --- | --- |
| 0.1 | 21 | 5.6 | 29 | 0.11 | 0.088 | C[C@@H]1[C@H](O)[C@@H](COP(=O)(O)O)O[C@H]1n1cnc2c(N)ncnc21 | 1.2 | 1.1 |  |
| 0.11 | 0 | 0 | 0 | 0.12 |  | Nc1ncnc2c1ncn2[C@@H]1O[C@H](COS(=O)(=O)O)[C@@H](O)[C@H]1O |  | 1.1 |  |
| 0.008 | > 0 | 0 | > 0 |  | 0.0082 | C[C@@H](OP(=O)(O)O)[C@H]1OC(n2cnc3c(N)ncnc32)[C@H](O)[C@@H]1O (stereo partly specified) |  |  |  |
| 0.028 | 0 | 0 | 0 | 0.13 | 0.03 | CC1O[C@@H]2[C@H](O1)[C@@H](COP(=O)(O)O)O[C@H]2n1cnc2c(N)ncnc21 (stereo partly specified) | 4.3 | 4.6 |  |
|  | 0 | 0 | 0 |  |  | CNc1ncnc2c1ncn2[C@@H]1O[C@H](COP(=O)(O)O)[C@@H](O)[C@H]1O |  |  | inhibition [19]: 15%; inhibition [20]: 15% |
| 0.032 | 0 | 0 | 0 | 0.089 | 0.03 | CCC1O[C@@H]2[C@H](O1)[C@@H](COP(=O)(O)O)O[C@H]2n1cnc2c(N)ncnc21 (stereo partly specified) | 3 | 2.8 |  |
| 0.017 | > 0 | > 0 | > 0 | 0.14 | 0.022 | CO[C@@H]1[C@H](O)[C@@H](COP(=O)(O)O)O[C@H]1n1cnc2c(N)ncnc21 | 6.4 | 8.2 |  |
| 0.1 | 8 | 1 | 7 | 0.28 | 0.062 | C[C@H](OP(=O)(O)O)[C@H]1OC(n2cnc3c(N)ncnc32)[C@H](O)[C@@H]1O (stereo partly specified) | 4.7 | 2.8 |  |
|  | 0 | 0 | 0 |  |  | COP(=O)(O)C[C@H]1OC(n2cnc3c(N)ncnc32)[C@H](O)[C@@H]1O (stereo partly specified) |  |  |  |
| 0.015 | 0 | 0 | 0 |  | 0.015 | CC[C@@H](OP(=O)(O)O)[C@H]1OC(n2cnc3c(N)ncnc32)[C@H](O)[C@@H]1O (stereo partly specified) |  |  |  |
| 0.096 | 0.82 | > 0 |  | 0.41 | 0.073 | CCC[C@H](OP(=O)(O)O)[C@H]1OC(n2cnc3c(N)ncnc32)[C@H](O)[C@@H]1O (stereo partly specified) | 5.6 | 4.3 | Relative Vmax [21]: 1.3 |
| 0.044 | 0 | 0 | 0 | 0.25 | 0.038 | CC1(C)O[C@@H]2[C@H](O1)[C@@H](COP(=O)(O)O)O[C@H]2n1cnc2c(N)ncnc21 | 6.6 | 5.7 |  |
| 0.13 | > 0 | > 0 | > 0 | 0.34 | 0.085 | CO[C@H]1[C@@H](O)[C@H](n2cnc3c(N)ncnc32)O[C@@H]1COP(=O)(O)O | 4 | 2.6 |  |
|  | 100 | 100 | 100 |  |  | Nc1ncnc2c1ncn2[C@@H]1O[C@H](COP(=O)(O)O)[C@@H](O)[C@H]1O |  |  |  |
|  | > 0 | > 0 |  | 0.64 | 0.057 | CC[C@H](OP(=O)(O)O)[C@H]1OC(n2cnc3c(N)ncnc32)[C@H](O)[C@@H]1O (stereo partly specified) | 11.2 |  | Relative Vmax [21]: 2.4 |
| 0.036 | 21 | 2.2 | 11.2 | 0.14 | 0.032 | Nc1ncnc2c1ncn2[C@@H]1O[C@H](CCP(=O)(O)O)[C@@H](O)[C@H]1O | 4.4 | 3.9 |  |

Reference: ChEMBL document CHEMBL1122090, “Species- or isozyme-specific enzyme inhibitors. 7. Selective effects in inhibitions of rat adenylate kinase isozymes by adenosine 5'-phosphate derivatives” (J Med Chem, 1982)
